Our source for the T/C values is PubChem BioAssay AID210 (DTP/NCI, 2004).

For the test, the system named is CD2F1 mice, ip Colon 26 adenocarcinoma, median survival T/C. As to the kind of experiment: NCI In Vivo Anticancer Drug Screen. Data for tumor model Colon 26 Adenocarcinoma (intraperitoneal) in CD2F1 (CDF1) mice. To be noted: endpoint: median survival time, higher = longer survival. As to the method:
The antitumor activity of compounds was measured in mice bearing transplantable tumors. Survival or tumor size were measured and the results are expressed as the measurement made in the treated group (T) divided by the measurement made in the vehicle treated control group (C). The tumor model used in this assay is Colon 26 Adenocarcinoma (intraperitoneal) in CD2F1 (CDF1) mice

Where [1] appears, read: dose: 2.0 mg/kg/injection, schedule: Q04DX003 (ip), vehicle: saline.
Where [2] appears, read: dose: 4.0 mg/kg/injection, schedule: Q04DX003 (ip), vehicle: saline.
[3] abbreviates: dose: 1.0 mg/kg/injection, schedule: Q04DX003 (ip), vehicle: saline.

“And” between values parts separate entries of the source, which are not always exact repeats. Equal values may be shown once. Toxic doses and inconclusive results are not listed.

For the molecule `COc1cccc2c1C(=O)c1c(O)c3c(c(O)c1C2=O)C[C@@](O)(C(=O)CO)C[C@@H]3OC1CC(N)C(O)C(C)O1` (some centres not stated), the T/C reads like this: (dose: 0.25 mg/kg/injection, schedule: Q01DX009 (ip), vehicle: saline) 151 % of control; (dose: 0.38 mg/kg/injection, schedule: Q04DX003 (ip), vehicle: water) 113 % of control; (dose: 0.5 mg/kg/injection, schedule: Q01DX009 (ip), vehicle: saline) 154 % of control; (dose: 0.75 mg/kg/injection, schedule: Q04DX003 (ip), vehicle: water) 117 % of control; (dose: 1.0 mg/kg/injection, schedule: Q01DX009 (ip), vehicle: saline) 243 % of control; (dose: 1.5 mg/kg/injection, schedule: Q04DX003 (ip), vehicle: water) 106 % of control. Besides, the T/C reads like this: (dose: 1.5 mg/kg/injection, schedule: Q07DX003 (iv), vehicle: saline) 111 % of control; (dose: 1.73 mg/kg/injection, schedule: Q04DX003 (ip), vehicle: water) 157 % of control; (dose: 2.0 mg/kg/injection, schedule: Q01DX009 (ip), vehicle: saline) 310 % of control; under setting [1], 278 % of control; (dose: 3.0 mg/kg/injection, schedule: Q04DX003 (ip), vehicle: water) 91 % of control; (dose: 3.0 mg/kg/injection, schedule: Q07DX003 (iv), vehicle: saline) 97 % of control. The T/C is 105 % of control (dose: 3.3 mg/kg/injection, schedule: Q07DX002 (iv), vehicle: saline); 112 % of control (dose: 3.7 mg/kg/injection, schedule: Q07DX003 (iv), vehicle: saline); 334 % of control under setting [2]; 106 % of control (dose: 4.3 mg/kg/injection, schedule: Q07DX002 (iv), vehicle: saline); 108 % of control (dose: 4.5 mg/kg/injection, schedule: Q07DX002 (iv), vehicle: saline); 101 % of control (dose: 4.5 mg/kg/injection, schedule: Q07DX002 (sc), vehicle: saline). In addition, the T/C by setting is: (dose: 4.8 mg/kg/injection, schedule: Q04DX003 (ip), vehicle: water) 152 % of control; (dose: 4.8 mg/kg/injection, schedule: Q07DX003 (iv), vehicle: saline) 107 % of control and 108 % of control; (dose: 5.4 mg/kg/injection, schedule: Q07DX002 (iv), vehicle: saline) 111 % of control; (dose: 5.8 mg/kg/injection, schedule: Q07DX003 (iv), vehicle: saline) 115 % of control; (dose: 6.0 mg/kg/injection, schedule: Q04DX003 (ip), vehicle: water) 120 % of control; (dose: 6.3 mg/kg/injection, schedule: Q07DX002 (ip), vehicle: saline) 197 % of control. Besides, the T/C runs as follows: (dose: 6.3 mg/kg/injection, schedule: Q07DX002 (iv), vehicle: saline) 105 % of control and 106 % of control; (dose: 6.3 mg/kg/injection, schedule: Q07DX003 (iv), vehicle: saline) 113 % of control and 114 % of control and 115 % of control; (dose: 6.5 mg/kg/injection, schedule: Q07DX002 (iv), vehicle: saline) 122 % of control; (dose: 7.3 mg/kg/injection, schedule: Q07DX002 (iv), vehicle: saline) 117 % of control; (dose: 7.3 mg/kg/injection, schedule: Q07DX002 (sc), vehicle: saline) 114 % of control; (dose: 8.1 mg/kg/injection, schedule: Q07DX002 (iv), vehicle: saline) 104 % of control and 112 % of control. Also, the T/C was 111 % of control and 119 % of control (2×) (dose: 8.1 mg/kg/injection, schedule: Q07DX003 (iv), vehicle: saline); 121 % of control (dose: 8.7 mg/kg/injection, schedule: Q07DX002 (iv), vehicle: saline); 111 % of control (dose: 9.0 mg/kg/injection, schedule: Q07DX003 (iv), vehicle: saline); 109 % of control (dose: 9.3 mg/kg/injection, schedule: Q07DX002 (iv), vehicle: saline); 124 % of control (dose: 9.8 mg/kg/injection, schedule: Q07DX002 (iv), vehicle: saline); 205 % of control (dose: 10.5 mg/kg/injection, schedule: Q07DX002 (ip), vehicle: saline). Moreover, the T/C by setting is: (dose: 10.5 mg/kg/injection, schedule: Q07DX002 (iv), vehicle: saline) 111 % of control and 88 % of control; (dose: 10.5 mg/kg/injection, schedule: Q07DX003 (iv), vehicle: saline) 120 % of control and 94 % of control; (dose: 12.0 mg/kg/injection, schedule: Q04DX003 (ip), vehicle: water) 116 % of control; (dose: 12.0 mg/kg/injection, schedule: Q07DX002 (iv), vehicle: saline) 123 % of control; (dose: 12.0 mg/kg/injection, schedule: Q07DX002 (sc), vehicle: saline) 122 % of control; (dose: 12.0 mg/kg/injection, schedule: Q07DX003 (iv), vehicle: saline) 96 % of control. For the same molecule, the T/C by setting is: (dose: 14.0 mg/kg/injection, schedule: Q07DX002 (iv), vehicle: saline) 115 % of control; (dose: 14.0 mg/kg/injection, schedule: Q07DX003 (iv), vehicle: saline) 117 % of control; (dose: 19.0 mg/kg/injection, schedule: Q07DX002 (sc), vehicle: saline) 155 % of control.

For the molecule `COc1ccc(CC2C(=O)NC(C)C(=O)N(C)C3C(=O)N(C)C(Cc4ccc(O)c(c4)Oc4ccc(cc4)C3O)C(=O)NC(C)C(=O)NC(C)C(=O)N2C)cc1` (configuration not stated) (tested in a mixture with another compound), the T/C by setting is: (dose: 0.5 mg/kg/injection, schedule: Q04DX003 (ip), vehicle: saline) 98 % of control; under setting [3], 98 % of control; under setting [1], 99 % of control.

In the case of `C[C@]12CCC(=O)[C@@](C)(CO)[C@@H]1[C@H](O)C[C@H]1C[C@@H]3C[C@@]12CC[C@]3(O)CO`, the T/C runs as follows: (dose: 5.0 mg/kg/injection, schedule: Q04DX003 (ip), vehicle: saline with Tween-80) 98 % of control; (dose: 10.0 mg/kg/injection, schedule: Q04DX003 (ip), vehicle: saline with Tween-80) 96 % of control; (dose: 20.0 mg/kg/injection, schedule: Q04DX003 (ip), vehicle: saline with Tween-80) 90 % of control; (dose: 40.0 mg/kg/injection, schedule: Q04DX003 (ip), vehicle: saline with Tween-80) 90 % of control; (dose: 80.0 mg/kg/injection, schedule: Q04DX003 (ip), vehicle: saline with Tween-80) 100 % of control.

`N[C@H](C(=O)O)[C@@H]1CC(Cl)=NO1`: the T/C under setting [3] is 102 % of control; the T/C under setting [1] is 105 % of control; the T/C under setting [2] was 107 % of control; the T/C (dose: 8.0 mg/kg/injection, schedule: Q04DX003 (ip), vehicle: saline) is 103 % of control; the T/C (dose: 16.0 mg/kg/injection, schedule: Q04DX003 (ip), vehicle: saline) was 110 % of control; the T/C (dose: 32.0 mg/kg/injection, schedule: Q04DX003 (ip), vehicle: saline) is 107 % of control.

Consider `COC12[C@@H]3N[C@@H]3CN1C1=C(C(=O)C(NCCSSCCNC3=C(C)C(=O)C4=C(C3=O)C(COC(N)=O)[C@]3(OC)C5N[C@@H]5CN43)=C(C)C1=O)[C@@H]2COC(N)=O` (some centres not stated), for which the T/C (dose: 1.0 mg/kg/injection, schedule: Q01DX004 (ip), vehicle: other) was 94 % of control; the T/C (dose: 2.0 mg/kg/injection, schedule: Q01DX004 (ip), vehicle: other) was 99 % of control; the T/C (dose: 2.0 mg/kg/injection, schedule: Q03DX002 (ip), vehicle: other) was 100 % of control; the T/C (dose: 4.0 mg/kg/injection, schedule: Q01DX004 (ip), vehicle: other) was 107 % of control; the T/C (dose: 4.0 mg/kg/injection, schedule: Q03DX002 (ip), vehicle: other) is 117 % of control; the T/C (dose: 6.0 mg/kg/injection, schedule: Q01DX004 (ip), vehicle: other) is 101 % of control. Also, the T/C is 96 % of control (dose: 6.0 mg/kg/injection, schedule: Q01DX005 (ip), vehicle: other); 96 % of control (dose: 9.0 mg/kg/injection, schedule: Q01DX005 (ip), vehicle: other); 110 % of control (dose: 9.0 mg/kg/injection, schedule: Q03DX002 (ip), vehicle: other); 106 % of control (dose: 15.0 mg/kg/injection, schedule: Q01DX005 (ip), vehicle: other).

On to `Cc1cn(C2CC3[O][Sn]([c]4ccccc4)([c]4ccccc4)[O]CC3O2)c(=O)[nH]c1=O` (configuration not stated), for which the T/C (dose: 25.0 mg/kg/injection, schedule: Q04DX002 (ip), vehicle: saline) is 96 % of control; the T/C (dose: 50.0 mg/kg/injection, schedule: Q04DX002 (ip), vehicle: saline) is 103 % of control; the T/C (dose: 100.0 mg/kg/injection, schedule: Q04DX002 (ip), vehicle: saline) is 112 % of control.
